We go through 6 compounds from patent US4507485A, “3,4-Disubstituted-1,2,5-oxadiazoles having histamine H2 -receptor antagonist activity” (Bristol-Myers Company, priority 1984, dated 1985).

Broadly, the ED50 is the dose at which the effect has come halfway, by size or by number of responders. A lower ED50 goes with greater potency.

One series has as its system peptic ulcer disease. The settings on record: clinical evaluation; cited from earlier work.
The subject of a further series is histamine H2-receptor. The settings on record: cited from earlier work; for histamine H2-antagonist potency/effectiveness: compared with burimamide or metiamide.
The conditions of series [1]: in vivo; cited from earlier work.
Another series deals with gastric secretion. The settings on record: cited from earlier work.
In series [2] the test system is gastric secretion (gastric fistula rat); histamine H2-receptor. Description: Gastric antisecretory activity in the gastric fistula rat. The format is in vivo, rat (male Long Evans). The settings on record: sc; for Potency Ratio: relative to cimetidine = 1.0. The protocol:
Male Long Evans rats weighing about 240-260 grams at the time of cannula implantation are used. […] The fistula components are designed and the operative procedure is carried out exactly as described in the above reference. Post operatively the animals are individually housed in solid bottom cages with sawdust and are allowed food and water ad libitum throughout the entire recovery period. Animals are not used for test purposes for at least 15 days after the operative procedure. The animals are fasted but allowed water ad libitum for 20 hours before the testing procedure is to begin. […] The catheter is then screwed into the cannula in place of the plugging screw and the rat is placed in a clear plastic rectangular cage measuring 40 cm long, 15 cm wide and 13 cm high. The bottom of the cage has a slit approximately 1.5 cm wide and 25 cm long running down the center to accommodate the catheter which hangs through it. […] Chem. Path. […] Gastric secretions collected during the first hour after washing the stomach are discarded as they may be contaminated. For oral evaluation, the catheter is then removed from the cannula and replaced with the plugging screw. […] After this time the plugging screw is removed and replaced with a catheter to which a small plastic vial has been attached to collect the gastric secretions. […] The secretions in the second sample are compared to those of the control sample in order to determine the effects of the test drug. […] Results are expressed as percent inhibition relative to control readings. Dose response curves are constructed and ED50 values are calculated by regression analyses. At least three rats are used at each dosage level and a minimum of three dosage levels are utilized for determination of a dose response curve.

Series [3] deals with gastric secretion (Heidenhain pouch dog). Briefly: Gastric antisecretory activity in the Heidenhain pouch dog. It is filed as in vivo, dog (female). The settings on record: iv; for ED50: Canis lupus familiaris, histamine infusion. The protocol: Prior to surgery, hematology and blood chemistry profiles are obtained and an assessment made as to the general health of selected female dogs. Dogs are vaccinated with Tissue Vax 5 (DHLP--Pitman-Moore) and housed in general animal quarters for four weeks' observation so incipient diseases may become apparent. Dogs are fasted with water ad libitum 24 hours prior to surgery.
Anesthesia is induced with Sodium Pentothal (Abbott) 25-30 mg/kg iv. Subsequent anesthesia is maintained with methoxyflurane (Pitman-Moore). A mid-line linea alba incision from xiphoid to umbilicus provides good exposure and ease of closure. The stomach is pulled up into the operative field, the greater curvature stretched out at multiple points and clamps placed along the selected line of incision. The pouch is made from the corpus of the stomach so that true parietal cell juice is obtained. About 30% of the corpus volume is resected. […]
Ninety minutes' infusion are allowed for the dogs to reach a steady state of acid output. […] Each sample is measured to the nearest 0.5 ml and titratable acidity is determined by titrating a 1 ml sample to pH 7.0 with 0.2N NaOH, using an Autoburet and an electrometric pH meter (Radiometer). Titratable acid output is calculated in microequivalents by multiplying the volume in milliliters by the acid concentration in milliequivalents per liter.
Results are expressed as percent inhibition relative to control readings and the response is the average for five days at that dose level.

The conditions of series [4]: in vivo; cited from earlier work. This is another data set of the same source.

For `CN=C(NC#N)NCCSCc1[nH]cnc1C` [Cimetidine], the “therapeutic effect in peptic ulcer disease” value with peptic ulcer disease was “effective therapeutic agent in the treatment of peptic ulcer disease”. The “histamine H2-antagonist potency/effectiveness” value with histamine H2-receptor is given as “as effective an histamine H2 -antagonist as metiamide”. The “toxicity (agranulocytosis)” value in series [1] is on record as “without producing agranulocytosis”.
As for `CNC(=S)NCCSCc1[nH]cnc1C` [Metiamide], the “histamine H2-antagonist potency/effectiveness” value in the series with histamine H2-receptor was “more potent than burimamide”. Further, in the series with gastric secretion (oral, man), the “oral activity in man” value was “orally active in man”. The “toxicity (agranulocytosis)” value in series [1] was “toxicity (agranulocytosis)”.
`Nc1nonc1NCCCOc1cccc(CN2CCCCC2)c1` [Example 1, 3-Amino-4-[3-(3-piperidinomethylphenoxy)propylamino]-1,2,5-oxadiazole]: the 50% effective dose (ED50) came to 0.18 µmol/kg in series [2] and 0.03 mg/kg in series [3]. Also, the entries for the “Potency Ratio” value in series [2] and in series [3] (relative to ranitidine = 1.0) were 19.3 and 1.8, respectively.
For the compound `CN(C)Cc1ccc(CSCCNc2nonc2N)o1` [Example 2, 3-Amino-4-{2-[(5-dimethylaminomethyl-2-furyl)methylthio]ethylamino}-1,2,5-oxadiazole], in series [2], the 50% effect level (ED50) was put at a dose of 5 µmol/kg and the “Potency Ratio” value was determined as 0.70.
In turn, `CNC(=C[N+](=O)[O-])NCCSCc1ccc(CN(C)C)o1` [Ranitidine] had a median effective dose (ED50) in series [3] of 0.054 mg/kg.
Take `CNC(=S)NCCCCc1cnc[nH]1` [Burimamide]: the oral absorption entry in series [4] is recorded as “poor”. The “clinical effectiveness as histamine H2-receptor antagonist” value in the series with histamine H2-receptor (clinical) is recorded as “first clinically effective”. The “inhibition of gastric secretion” value in the series with gastric secretion (animals, including man) is “inhibits gastric secretion in animals, including man”.
